Source: ChEMBL document CHEMBL1201862, “PubChem BioAssay data set” (2004)
The source made the active and inactive calls.

Experiments:
[1] = biological target: Exodeoxyribonuclease V (Escherichia coli (strain K12), UniProt P04993+P07648+P08394); experiment: E. coli RecBCD inhibitors, dose response, counter-screen for AddAB inhibitor project, absorbance, V66 E. coli, mutant T4 phage (AID 492957); type: functional, cell-based, Escherichia coli str. K-12 substr. MG1655
[2] = Counterscreen for AddAB inhibitors: absorbance-based bacterial cell-based high throughput dose response assay for inhibitors of bacterial viability. [Related pubchem assays (depositor defined):AID435030, AID449728, AID449731, AID488942, AID488955, AID488956]; type: functional
[3] = Luminescence Cell-Based Dose Retest to Confirm Inhibitors of Cancer Stem Cells. [Related pubchem assays (depositor defined):AID2717, AID2721]; type: functional, Homo sapiens; details: Homo sapiens
[4] = cytotoxicity in HMLE control line with eGFP shRNA, dose response, counter-screen for HMLE_sh_ECad selective toxicity project, cell-based, HMLE_sh_eGFP, luminescence (AID 463074); type: functional, Homo sapiens;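 also: HMLE human mammary epithelial cells expressing control shRNA against eGFP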
[5] = biological target: Fructose-bisphosphate aldolase (Mycobacterium tuberculosis, UniProt P9WQA3); experiment: Fluorescence-based biochemical high throughput dose response assay for inhibitors of the fructose-bisphosphate aldolase (FBA) of M. tuberculosis.; type: functional
Sequence of Fructose-bisphosphate aldolase (P9WQA3 whole entry): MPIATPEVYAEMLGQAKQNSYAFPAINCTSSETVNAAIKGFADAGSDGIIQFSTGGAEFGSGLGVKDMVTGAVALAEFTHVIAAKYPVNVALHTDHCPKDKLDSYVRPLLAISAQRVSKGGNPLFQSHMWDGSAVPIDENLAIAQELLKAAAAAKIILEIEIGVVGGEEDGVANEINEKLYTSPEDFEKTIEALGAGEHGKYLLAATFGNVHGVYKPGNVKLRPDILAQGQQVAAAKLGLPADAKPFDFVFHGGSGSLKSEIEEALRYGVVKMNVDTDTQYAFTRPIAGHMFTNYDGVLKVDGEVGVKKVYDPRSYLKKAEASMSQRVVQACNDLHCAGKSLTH

[6] = system: INS1; experiment: beta cell apoptosis inhibitors, cytokine rescue, dose response, luminescence, retest (AID 449756); type: functional, cell-based; details: Rattus norvegicus;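 also: cell death triggered by IL-1 beta plus TNF-alpha plus IFN-gamma mixture; protective hits raise ATP signal compared with cytokine alone wells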
[7] = system: Escherichia coli; experiment: microbe, parasite or virus in culture
[8] = biological target: T1, Ubiquitin-conjugating enzyme E2 N (Homo sapiens, UniProt P61088); type: functional
T1 sequence (P61088 whole entry): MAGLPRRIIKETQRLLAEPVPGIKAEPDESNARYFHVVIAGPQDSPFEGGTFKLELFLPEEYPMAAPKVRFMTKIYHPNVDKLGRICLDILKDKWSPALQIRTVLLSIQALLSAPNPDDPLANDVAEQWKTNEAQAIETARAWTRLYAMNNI

[9] = human group III sPLA2 inhibitors, dose response, biochemical, QFRET, IC50 (AID 743457);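 also: green fluorescence rise as the enzyme cleaves BODIPY PC-A2 in liposomes; potency for inhibition of the enzyme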
[10] = biological target: Bcl-2-related protein A1 (Mus musculus, UniProt Q07440); type: functional;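 also: confirmatory dose–response counterscreen on Bfl-1, used to check hits from a UBC13 polyubiquitin inhibitor campaign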
Sequence of Bcl-2-related protein A1 (Q07440 whole entry): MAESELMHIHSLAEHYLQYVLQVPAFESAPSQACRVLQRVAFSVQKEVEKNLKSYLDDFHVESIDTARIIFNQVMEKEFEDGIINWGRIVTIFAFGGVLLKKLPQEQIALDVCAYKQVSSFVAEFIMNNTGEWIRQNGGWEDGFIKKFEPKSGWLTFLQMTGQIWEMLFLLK

[11] = biological target: T1, Ubiquitin-conjugating enzyme E2 N; type: functional; remark: listed apart in the source
[12] = biological target: T2, Tyrosine-protein phosphatase non-receptor type 22 (Homo sapiens, UniProt Q9Y2R2); type: functional
T2 sequence (Q9Y2R2 whole entry): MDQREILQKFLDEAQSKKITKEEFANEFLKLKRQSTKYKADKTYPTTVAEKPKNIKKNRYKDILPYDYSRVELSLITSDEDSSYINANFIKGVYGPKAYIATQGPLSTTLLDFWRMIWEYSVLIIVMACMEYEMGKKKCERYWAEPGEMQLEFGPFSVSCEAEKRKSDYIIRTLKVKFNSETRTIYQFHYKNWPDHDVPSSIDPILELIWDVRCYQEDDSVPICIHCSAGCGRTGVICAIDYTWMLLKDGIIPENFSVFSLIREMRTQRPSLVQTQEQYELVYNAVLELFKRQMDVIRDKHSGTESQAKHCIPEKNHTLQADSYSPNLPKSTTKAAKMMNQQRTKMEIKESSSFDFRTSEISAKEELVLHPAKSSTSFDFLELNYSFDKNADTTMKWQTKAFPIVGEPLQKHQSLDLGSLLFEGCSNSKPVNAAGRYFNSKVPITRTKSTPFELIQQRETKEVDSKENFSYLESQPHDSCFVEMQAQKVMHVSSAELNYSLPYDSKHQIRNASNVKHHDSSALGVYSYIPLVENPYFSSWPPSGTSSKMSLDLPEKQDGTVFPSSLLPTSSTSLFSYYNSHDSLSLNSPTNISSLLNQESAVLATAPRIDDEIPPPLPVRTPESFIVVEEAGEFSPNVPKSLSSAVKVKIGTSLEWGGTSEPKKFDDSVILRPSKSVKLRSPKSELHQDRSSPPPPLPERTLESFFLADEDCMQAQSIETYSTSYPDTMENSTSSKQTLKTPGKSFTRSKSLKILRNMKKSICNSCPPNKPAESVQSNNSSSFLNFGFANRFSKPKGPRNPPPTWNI

[13] = biological target: T3, Tyrosine-protein phosphatase non-receptor type 7 (Homo sapiens, UniProt P35236); type: functional
T3 sequence (P35236 whole entry): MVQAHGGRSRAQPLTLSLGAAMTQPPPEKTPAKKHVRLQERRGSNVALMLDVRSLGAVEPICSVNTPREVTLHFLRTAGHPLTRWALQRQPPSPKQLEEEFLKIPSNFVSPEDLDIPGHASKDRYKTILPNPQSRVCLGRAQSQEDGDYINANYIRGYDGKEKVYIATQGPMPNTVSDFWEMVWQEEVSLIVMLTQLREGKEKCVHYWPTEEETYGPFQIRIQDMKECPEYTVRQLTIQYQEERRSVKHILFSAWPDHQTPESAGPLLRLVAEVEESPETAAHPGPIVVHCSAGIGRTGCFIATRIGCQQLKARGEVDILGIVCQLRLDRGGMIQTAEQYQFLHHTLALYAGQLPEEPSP

[14] = biological target: T2, Tyrosine-protein phosphatase non-receptor type 22; type: functional; remark: listed apart in the source
[15] = AlphaScreen signal interference compounds, dose response, artefact control for ARNT-TACC3 interaction inhibitor project, biochemical, luminescence, cherry-pick (AID 651705); type: functional;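 also: AlphaScreen bead proximity signal that flags compounds interfering with the detection technology; potency reflects signal decrease which marks the compound as an assay artifact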
[16] = biological target: Nonstructural protein 1 (Influenza A virus, UniProt Q194T2); type: functional, Influenza A virus (A/California/07/2009(H1N1))
Sequence of Nonstructural protein 1 (Q194T2 whole entry): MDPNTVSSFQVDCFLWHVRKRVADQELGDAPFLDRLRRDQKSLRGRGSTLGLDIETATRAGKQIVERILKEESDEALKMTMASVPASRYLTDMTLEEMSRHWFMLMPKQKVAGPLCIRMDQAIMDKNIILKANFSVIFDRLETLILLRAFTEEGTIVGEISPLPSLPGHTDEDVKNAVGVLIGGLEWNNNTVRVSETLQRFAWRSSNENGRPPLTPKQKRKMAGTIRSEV

[17] = biological target: T4, Rac GTPase-activating protein 1 (Homo sapiens, UniProt Q9H0H5); experiment: MgcRacGAP GTPase-activating activity inhibitors, confirmation, biochemical, ADP Hunter fluorescence, primary and confirmatory (AID 624330); type: functional
T4 sequence (Q9H0H5 whole entry): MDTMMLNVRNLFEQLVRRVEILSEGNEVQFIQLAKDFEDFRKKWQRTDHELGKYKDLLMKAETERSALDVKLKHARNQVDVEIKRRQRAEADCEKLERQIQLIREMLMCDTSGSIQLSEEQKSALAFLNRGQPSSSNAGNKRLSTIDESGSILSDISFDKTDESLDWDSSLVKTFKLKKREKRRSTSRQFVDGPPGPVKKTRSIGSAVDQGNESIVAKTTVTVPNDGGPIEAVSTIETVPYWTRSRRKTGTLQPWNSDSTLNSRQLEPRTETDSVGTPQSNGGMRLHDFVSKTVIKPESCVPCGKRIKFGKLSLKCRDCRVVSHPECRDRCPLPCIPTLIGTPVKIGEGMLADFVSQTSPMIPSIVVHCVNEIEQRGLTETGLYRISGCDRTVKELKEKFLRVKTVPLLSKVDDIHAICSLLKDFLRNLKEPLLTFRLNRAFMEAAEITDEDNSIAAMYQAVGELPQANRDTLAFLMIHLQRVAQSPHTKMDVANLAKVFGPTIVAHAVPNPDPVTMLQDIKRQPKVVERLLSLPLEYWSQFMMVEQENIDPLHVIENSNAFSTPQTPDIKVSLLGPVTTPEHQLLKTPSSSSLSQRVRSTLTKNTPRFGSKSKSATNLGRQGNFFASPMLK

Sequence of Exodeoxyribonuclease V (P04993 whole entry): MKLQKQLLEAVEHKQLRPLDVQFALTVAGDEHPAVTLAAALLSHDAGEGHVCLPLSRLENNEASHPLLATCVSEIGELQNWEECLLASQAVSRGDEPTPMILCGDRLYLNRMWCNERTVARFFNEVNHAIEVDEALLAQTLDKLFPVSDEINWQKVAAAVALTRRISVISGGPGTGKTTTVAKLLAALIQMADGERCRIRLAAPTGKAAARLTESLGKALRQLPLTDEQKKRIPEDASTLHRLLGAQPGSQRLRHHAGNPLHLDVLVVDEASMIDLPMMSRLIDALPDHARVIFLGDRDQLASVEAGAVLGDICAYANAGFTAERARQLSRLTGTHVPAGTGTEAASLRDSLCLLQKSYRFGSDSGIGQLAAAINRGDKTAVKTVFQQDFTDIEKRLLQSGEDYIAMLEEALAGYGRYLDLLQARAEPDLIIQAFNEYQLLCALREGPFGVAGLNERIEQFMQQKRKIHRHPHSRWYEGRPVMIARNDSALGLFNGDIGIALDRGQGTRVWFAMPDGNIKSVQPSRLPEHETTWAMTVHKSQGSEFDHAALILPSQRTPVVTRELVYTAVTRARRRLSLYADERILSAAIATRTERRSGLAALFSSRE
Sequence of Exodeoxyribonuclease V (P07648 whole entry): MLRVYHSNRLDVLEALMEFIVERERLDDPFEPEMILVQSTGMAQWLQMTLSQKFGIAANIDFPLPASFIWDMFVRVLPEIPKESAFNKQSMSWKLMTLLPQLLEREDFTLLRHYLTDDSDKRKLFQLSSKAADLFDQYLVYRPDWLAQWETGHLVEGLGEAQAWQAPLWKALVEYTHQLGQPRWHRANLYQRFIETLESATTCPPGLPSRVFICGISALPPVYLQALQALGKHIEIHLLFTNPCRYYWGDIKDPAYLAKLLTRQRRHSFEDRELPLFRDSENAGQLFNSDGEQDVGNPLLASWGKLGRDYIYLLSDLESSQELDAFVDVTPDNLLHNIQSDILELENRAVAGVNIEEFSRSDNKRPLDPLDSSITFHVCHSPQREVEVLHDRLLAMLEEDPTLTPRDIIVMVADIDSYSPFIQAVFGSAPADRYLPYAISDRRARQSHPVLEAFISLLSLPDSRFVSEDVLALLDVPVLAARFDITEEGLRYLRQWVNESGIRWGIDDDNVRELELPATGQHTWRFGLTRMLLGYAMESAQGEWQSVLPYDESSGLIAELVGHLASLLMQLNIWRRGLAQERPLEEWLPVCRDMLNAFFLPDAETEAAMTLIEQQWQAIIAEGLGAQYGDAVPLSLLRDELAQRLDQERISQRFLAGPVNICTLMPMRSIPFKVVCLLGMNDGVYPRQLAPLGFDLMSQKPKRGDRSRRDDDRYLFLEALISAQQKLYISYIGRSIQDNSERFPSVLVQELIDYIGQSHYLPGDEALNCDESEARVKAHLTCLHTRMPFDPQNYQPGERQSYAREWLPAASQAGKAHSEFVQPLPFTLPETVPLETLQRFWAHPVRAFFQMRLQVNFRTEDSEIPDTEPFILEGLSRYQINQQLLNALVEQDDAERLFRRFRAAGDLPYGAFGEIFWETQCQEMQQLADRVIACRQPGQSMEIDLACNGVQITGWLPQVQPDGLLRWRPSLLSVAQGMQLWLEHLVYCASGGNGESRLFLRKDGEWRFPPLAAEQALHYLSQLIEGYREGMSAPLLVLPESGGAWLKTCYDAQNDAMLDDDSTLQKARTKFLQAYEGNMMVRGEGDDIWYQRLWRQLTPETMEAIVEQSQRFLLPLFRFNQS
Sequence of Exodeoxyribonuclease V (P08394 whole entry): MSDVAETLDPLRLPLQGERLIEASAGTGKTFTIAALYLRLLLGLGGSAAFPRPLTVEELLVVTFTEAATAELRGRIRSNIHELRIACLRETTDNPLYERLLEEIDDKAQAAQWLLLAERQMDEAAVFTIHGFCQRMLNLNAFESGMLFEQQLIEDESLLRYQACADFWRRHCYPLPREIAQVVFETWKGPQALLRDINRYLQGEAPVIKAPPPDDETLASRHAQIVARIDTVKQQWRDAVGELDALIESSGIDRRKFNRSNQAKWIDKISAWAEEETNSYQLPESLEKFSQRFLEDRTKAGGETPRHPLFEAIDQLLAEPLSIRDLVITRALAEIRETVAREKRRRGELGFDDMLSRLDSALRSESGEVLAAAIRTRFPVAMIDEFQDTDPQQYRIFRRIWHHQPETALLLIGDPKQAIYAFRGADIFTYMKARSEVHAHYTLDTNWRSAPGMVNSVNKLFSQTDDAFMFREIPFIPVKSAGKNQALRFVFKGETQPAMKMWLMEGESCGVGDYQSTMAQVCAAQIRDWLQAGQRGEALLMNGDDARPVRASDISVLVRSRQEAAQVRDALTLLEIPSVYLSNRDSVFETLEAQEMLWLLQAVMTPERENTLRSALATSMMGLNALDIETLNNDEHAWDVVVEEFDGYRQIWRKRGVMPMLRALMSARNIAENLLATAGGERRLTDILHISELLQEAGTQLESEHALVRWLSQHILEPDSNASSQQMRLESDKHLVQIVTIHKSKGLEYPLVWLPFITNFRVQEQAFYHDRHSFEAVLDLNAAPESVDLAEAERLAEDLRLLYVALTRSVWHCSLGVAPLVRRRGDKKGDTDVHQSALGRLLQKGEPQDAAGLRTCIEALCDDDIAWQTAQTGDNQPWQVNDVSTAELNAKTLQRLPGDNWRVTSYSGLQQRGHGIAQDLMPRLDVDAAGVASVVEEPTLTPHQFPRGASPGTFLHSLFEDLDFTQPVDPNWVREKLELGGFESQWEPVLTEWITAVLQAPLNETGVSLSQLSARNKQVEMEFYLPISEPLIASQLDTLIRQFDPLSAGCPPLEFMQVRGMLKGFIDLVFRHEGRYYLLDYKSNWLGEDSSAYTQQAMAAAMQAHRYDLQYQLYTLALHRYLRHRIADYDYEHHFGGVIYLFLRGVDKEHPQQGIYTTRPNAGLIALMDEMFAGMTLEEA

## O=C(OCC(=O)c1cccs1)c1ccc([N+](=O)[O-])o1
[1]
  IC50: > 119 µM (inactive)
[2]
  IC50: 92.6 µM (inactive)

## Cc1ccc2nc(-c3ccc(-c4cccc(Cl)c4)cc3)c(NCc3ccccc3)n2c1
[3]
  AC50: 4.96 µM (active)
[4]
  AC50: 24 µM (active)
[5]
  IC50: 0.848 µM (active)
[6]
  AC50: 2.29 µM (active)

## C[C@H](NS(=O)(=O)c1ccc(Cl)c(Cl)c1)C(=O)OCc1cc(=O)n2cc(Br)ccc2n1
[7]
  AC50: 67.4 µM (active)

## Cc1cc(C(=O)NNC(=S)NC(=O)/C=C/c2ccccc2Cl)[nH]n1
[8]
  IC50: 5.24 µM (active)
[9]
  IC50: > 122 µM (inactive)
[10]
  IC50: > 20 µM (inactive)
[11]
  IC50: 6.96 µM (active)

## CCOC1(C)OCC(=O)[C@]2(CCC3C4CCC5=CC(=O)C=CC5(C)C4C(=O)CC32C)O1 (some centres undefined)
[12]
  IC50: > 79.4 µM (inactive)
[13]
  IC50: > 79.4 µM (inactive)
[14]
  IC50: > 79.4 µM (inactive)

## O=C(Cn1cnc([N+](=O)[O-])n1)N/N=C/c1ccc(O)cc1O
[3]
  AC50: 19.3 µM (active)
[4]
  AC50: 20.8 µM (active)
[15]
  AC50: 102 µM (active)
[16]
  IC50: 10.9 µM (active)
[17]
  IC50: 107 µM (active)
